Holding throughout (assay type): cell-based
For experiment [1], the target named is T1, human PPARα (166–467aa) ligand binding domain (Homo sapiens, UniProt Q07869).
T1 construct: human PPARα (166–467aa); expressed in transfected cells; host or cells: COS-7
T1 sequence (Q07869 166-467): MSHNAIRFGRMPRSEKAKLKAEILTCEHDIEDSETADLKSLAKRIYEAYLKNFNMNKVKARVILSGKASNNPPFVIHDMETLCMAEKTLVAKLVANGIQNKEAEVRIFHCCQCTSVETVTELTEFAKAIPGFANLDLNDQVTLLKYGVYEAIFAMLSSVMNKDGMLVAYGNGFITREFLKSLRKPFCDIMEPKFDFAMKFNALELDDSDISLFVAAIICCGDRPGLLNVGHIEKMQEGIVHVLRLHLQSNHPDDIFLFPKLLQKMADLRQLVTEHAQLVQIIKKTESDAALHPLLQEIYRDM
Briefly: PPAR transfection (Gal4-LBD luciferase reporter) assay, hPPARα. Conditions: transfected COS-7 cells, 16 hours, luciferase activity; read-out: hPPAR; EC50 α (agonist activity). Here is the method:
(§1) COS-7 cells, which is African green monkey kidney cell line, were used for all transfection assays. Cells were cultured in DMEM medium supplemented with 10% fetal bovine serum, glutamic acid, and an antibiotic under humidified 5% CO2 atmosphere.
(§2) Cells were transfected by lipofectamine reagent with a mixture containing expression plasmid, firefly luciferase reporter plasmid. And a β-galactosidase expression plasmid used as an internal control for transfection efficiency.
(§3) Transiently transfected cells were incubated with DMEM with 0.2% FCS with or without compound. And after 16 hours, luciferase activity and β-galactosidase activity of cell lysate were measured.
(§4) Each compound was dissolved in and diluted with dimethyl sulfoxide (DMSO), and the DMSO concentration of the DMEM medium (containing 0.2% serum) was adjusted to 0.1% upon treatment of cells.
In general terms: In a reporter assay the amount or activity of a reporter protein is the signal.

Experiment [2] deals with T2, human PPARγ (182–505aa) ligand binding domain (Homo sapiens, UniProt P37231).
T2 construct: γ(182–505aa); expressed in transfected cells; host or cells: COS-7
T2 sequence (P37231 182-505): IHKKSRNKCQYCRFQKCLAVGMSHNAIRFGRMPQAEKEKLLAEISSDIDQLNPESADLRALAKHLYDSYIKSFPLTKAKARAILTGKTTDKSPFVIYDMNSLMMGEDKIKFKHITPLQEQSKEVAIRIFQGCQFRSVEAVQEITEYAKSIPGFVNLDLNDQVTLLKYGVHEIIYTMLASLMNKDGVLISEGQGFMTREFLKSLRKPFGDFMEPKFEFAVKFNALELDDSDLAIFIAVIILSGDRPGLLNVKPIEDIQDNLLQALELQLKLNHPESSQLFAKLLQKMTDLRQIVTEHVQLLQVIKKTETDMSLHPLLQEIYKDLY
As to the kind of experiment: PPAR transfection (Gal4-LBD luciferase reporter) assay, hPPARγ. Particulars: for EC50: transfected COS-7 cells, 16 hours, luciferase activity, read-out: hPPAR, EC50 γ (agonist activity); for activation factor, hPPARγ (FIGS. 1 to 5): at 10-fold concentration of EC50 value in activation of hPPARα, ratio to DMSO control. Here is the method: as §1, §2, §3, §4

Experiment [3] deals with T3, human PPARδ (137–441aa) ligand binding domain (Homo sapiens, UniProt Q03181).
T3 construct: δ (137–441aa); expressed in transfected cells; host or cells: COS-7
T3 sequence (Q03181 137-441): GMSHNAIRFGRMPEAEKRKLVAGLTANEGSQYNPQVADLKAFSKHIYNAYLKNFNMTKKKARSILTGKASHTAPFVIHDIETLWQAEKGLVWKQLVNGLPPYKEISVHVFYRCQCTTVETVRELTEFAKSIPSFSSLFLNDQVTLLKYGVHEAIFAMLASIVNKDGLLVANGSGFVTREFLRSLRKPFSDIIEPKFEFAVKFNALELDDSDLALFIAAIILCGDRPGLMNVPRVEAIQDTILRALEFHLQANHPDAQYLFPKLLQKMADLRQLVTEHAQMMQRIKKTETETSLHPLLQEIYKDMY
As to the kind of experiment: PPAR transfection (Gal4-LBD luciferase reporter) assay, hPPARδ. Particulars: for EC50: transfected COS-7 cells, 16 hours, luciferase activity, read-out: hPPAR, EC50 δ (agonist activity); for activation factor, hPPARδ (FIGS. 1 to 5): at 10-fold concentration of EC50 value in activation of hPPARα, ratio to DMSO control. Here is the method:
as §1, §2, §3, §4

The values below come from US7183295B2, “PPAR-activating compound and pharmaceutical composition comprising the compound” (Kowa Co., Ltd., priority 2003, dated 2007).

Some results are limits rather than exact numbers.

Take `COc1ccc(OCCCN(Cc2cccc(OC(C)C(=O)O)c2)c2nc3ccccc3o2)cc1` (stereo not shown) [Example 20, 2-[3-[[N-(Benzoxazol-2-yl)-N-3-(4-methoxyphenoxy)propyl]aminomethyl]phenoxy]propionic acid]: the EC50 came to 10 nM in experiment [1], 1200 nM in experiment [2] and 2000 nM in experiment [3].

Consider `CCC(Oc1cccc(CCN(CCCOc2ccc(Cl)cc2)c2nc3cc(OC)ccc3o2)c1)C(=O)O` (stereo not shown) [Example 52, 2-[3-[2-[N-3-(4-Chlorophenoxy)propyl-N-(5-methoxybenzoxazol-2-yl)]aminoethyl]phenoxy]butyric acid], for which the results for the EC50 in experiment [1], in experiment [2] and in experiment [3] were 10 nM, 2000 nM and 400 nM, respectively.

For `Cc1ccc2oc(N(CCCOc3ccc(F)cc3)Cc3cccc(OC(C)C(=O)O)c3)nc2c1` (stereo not shown) [Example 153], the EC50 in experiment [1] is 3 nM; in experiment [2], 2500 nM; in experiment [3] it was 1400 nM.

Regarding `CCC(Oc1cccc(CN(CCOc2ccc(F)cc2)c2nc3ccc(F)cc3o2)c1)C(=O)O` (stereo not shown) [Example 183], the values for the EC50 in experiment [1], in experiment [2] and in experiment [3] were 4 nM, 400 nM and 2400 nM, respectively.

For `COc1ccc(OCCCN(Cc2cccc(O[C@H](C)C(=O)O)c2)c2nc3ccccc3o2)cc1` [Example 82, (R)-2-[3-[[N-(Benzoxazol-2-yl)-N-3-(4-methoxyphenoxy)propyl]aminomethyl]phenoxy]propionic acid], the EC50 is 2 nM in experiment [1], 1200 nM in experiment [2] and 2500 nM in experiment [3].

On to `CC(Oc1cccc(CN(CCOc2ccccc2)c2nc3ccccc3o2)c1)C(=O)O` (stereo not shown) [Example 18, 2-[3-[[N-(Benzoxazol-2-yl)-N-2-phenoxyethyl]aminomethyl]phenoxy]propionic acid], for which the values for the EC50 in experiment [1], in experiment [2] and in experiment [3] were 70 nM, 1200 nM and more than 100000 nM, respectively.

Turning to `CC(Oc1cccc(CCN(CCOc2ccc(F)cc2)c2nc3cc(Cl)ccc3o2)c1)C(=O)O` (stereo not shown) [Example 36, 2-[3-[2-[N-(5-Chlorobenzoxazol-2-yl)-N-2-(4-fluorophenoxy)ethyl]aminoethyl]phenoxy]propionic acid], the EC50 in experiment [1] was found to be 50 nM; in experiment [2], 2100 nM; in experiment [3], 1600 nM.

For `CCC(Oc1cccc(CN(CCOc2ccc(F)cc2)c2nc3ccccc3o2)c1)C(=O)O` (stereo not shown) [Example 3, 2-[3-[[N-(Benzoxazol-2-yl)-N-2-(4-fluorophenoxy)ethyl]aminomethyl]phenoxy]butyric acid], the EC50 is 10 nM in experiment [1], more than 100000 nM in experiment [2] and 1800 nM in experiment [3].

Turning to `CCC(Oc1cccc(CN(CCOc2ccc(Cl)cc2)c2nc3ccccc3o2)c1)C(=O)O` (stereo not shown) [Example 2, 2-[3-[[N-(Benzoxazol-2-yl)-N-2-(4-chlorophenoxy)ethyl]aminomethyl]phenoxy]butyric acid], the EC50 in experiment [1] was 10 nM. For the same compound, in experiment [2], the “activation factor, hPPARγ (FIGS. 1 to 5)” value is on record as “substantially no activation” and the EC50 was found to be 7300 nM. In addition, in experiment [3], the “activation factor, hPPARδ (FIGS. 1 to 5)” value is “substantially no activation” and the EC50 is 2500 nM.

With `CCC(Oc1cccc(CN(CCCOc2ccc(F)cc2)c2nc3ccccc3o2)c1)C(=O)O` (stereo not shown) [Example 1, 2-[3-[[N-(Benzoxazol-2-yl)-N-3-(4-fluorophenoxy)propyl]aminomethyl]phenoxy]butyric acid], the EC50 in experiment [1] came out at 10 nM. Also, in experiment [2], the “activation factor, hPPARγ (FIGS. 1 to 5)” value is “substantially no activation” and the EC50 was more than 100000 nM. In experiment [3], the “activation factor, hPPARδ (FIGS. 1 to 5)” value is “substantially no activation” and the EC50 turned out to be 1600 nM.

For the compound `CC(Oc1cccc(CCN(CCOc2ccccc2)c2nc3cc(F)ccc3o2)c1)C(=O)O` (stereo not shown) [Example 43, 2-[3-[2-[N-(5-Fluorobenzoxazol-2-yl)-N-2-phenoxyethyl]aminoethyl]phenoxy]propionic acid], the EC50 is 70 nM in experiment [1], more than 100000 nM in experiment [2] and 5300 nM in experiment [3].
